For data set [1] the following is noted: cited from earlier work; for pKa2 / pKa3 / pKa: approximate; for pKa: pKa of the acid.
Data set [2] is described as follows: Particle size by laser light scattering (Malvern). Format: physicochemical. The note with it: raw material of Table 7. On the procedure:
Samples have been dried for minimum 12 hours at 40° C. prior to the measurements.

Where two headings read alike, the source gives them in different places.

A word on the pKa: it is the pH at which an ionisable group is half protonated.

As to `NCCCC[C@H](N)C(=O)O` [Lysine], the pKa2 result in data set [1] is “pKa2: 8.9”.
Consider `N=C(N)NCCC[C@H](N)C(=O)O` [Arginine], for which the pH entry in data set [1] (100 g/L H2O) is listed as “pH≈11.4”. In data set [1], the pKa2 result is on record as “pKa2: 9.1” and the pKa3 result is given as “pKa3: 13.2”.
For `O=C([O-])[O-].[Ca+2]` [Calcium carbonate], in data set [1], the pKa is reported as 10.3.
On to `N[C@@H](Cc1c[nH]cn1)C(=O)O` [Histidine], for which the pH entry in data set [1] (10 g/L H2O) is recorded as “pH≈7.7”. Also, the pKa3 entry in data set [1] was “pKa3: 9.0”.
For `O=C([O-])[O-].[Na+].[Na+]` [DiSodium carbonate], the pKa in data set [1] is on record as 10.3.
In the case of `COc1ccnc(C[S+]([O-])c2nc3ccc(OC(F)F)cc3[nH]2)c1OC` (stereo not drawn) [Pantoprazole sodium sesquihydrate], in data set [2], the “D(v; 0.5)” value was found to be 7 μm.

Source of the values: patent US20070020334A1, “Benzimidazole formulation” (priority 2005, published 2007).
